Starred links: 1 amine or outer side, 2 acyl side, 3 side chain; linkers in the order of their positions; H or OH if unused. Non-standard residues stand in square brackets, D forms with d. Residues, ends and D or L forms follow the SMILES beside them. *: point of attachment. Gly(N-(3-decanoyloxypropyl)) = CCCCCCCCCC(=O)OCCCNCC(=O)O; N(3-lauroyloxypropyl)Gly = CCCCCCCCCCCC(=O)OCCCNCC(=O)O; Gly(N-(CH2)3O-octanoyl) = CCCCCCCC(=O)OCCCNCC(=O)O; N(3-imidazol-1-ylpropyl)Gly = O=C(O)CNCCCn1ccnc1; Gly(N-3-morpholinopropyl) = O=C(O)CNCCCN1CCOCC1; N(2-ethylhexyl)Gly = CCCCC(CC)CNCC(=O)O; X1 = CCCCC(CC)CSSCCN(CC(=O)[*:2])[*:1]; X3 = CCCCCCCCSSCCN(CC(=O)[*:2])[*:1]; N(CH(CH2OH)2)Gly = O=C(O)CNC(CO)CO; N(octyl)Gly = CCCCCCCCNCC(=O)O; NDecylGly = CCCCCCCCCCNCC(=O)O; For = O=C*
Key:
[1] = Delivery vehicle size and polydispersity by dynamic light scattering; assay type: physicochemical; details: DLS in PBS; peptoid:DSPC:Cholesterol:DMG-PEG2000 weight ratio 20:1.79:7.16:1.84, mRNA
Description: Delivery vehicles were formulated by rapid microfluidic mixing using a high throughput microfluidic system. Briefly, ethanol solutions containing peptoid, DSPC, Cholesterol, DMG-PEG2000 at weight ratio of 20:1.79:7.16:1.84, were mixed with 10 mM sodium citrate buffer (pH 5.0) containing synthesized mRNA at a ratio of 1:3 by volume. Peptoid based LNPs were subsequently dialyzed against 1-2 liters of tris-sucrose buffer (TS7, pH 7.4) overnight at 4 °C. Delivery vehicle size and polydispersity (PDI) was measured by dynamic light scattering in PBS.
(§1) Degradable peptoids described herein were formulated as various formulations described in Table 3 according to the procedure described in Example 2. Particle size was characterized as described in Example 2, and […] encapsulation of mRNA was determined as described in Example 3.

hEPO = test: Quantification of hEPO in serum after IV injection of mRNA (Human EPO ELISA); assay type: in vivo; details: Balb/c mice, 2.5 μg mRNA IV, serum after 6 hours
Description: Balb/c mice were treated with 2.5 μg of mRNA coding for human erythropoiten via IV injection according to a similar method as in Example 4. hEPO protein in the serum was quantified after 6 hours using the Human EPO ELISA Kit from Invitrogen (catalog #BMS2035-2). Wash buffer (PBS with 1% tween 20) and assay buffer (PBS with 1% tween 20, 10% BSA) were prepared from a 20× concentrate with milli-Q water. Serum samples were diluted with PBS according to expected EPO concentration, with a 50× dilution for low expression samples and up to a 30,000× dilution for samples expected to have high expression. Microwell strips were washed in a plate washer with wash buffer and tapped on an absorbent pad to remove excess buffer. 100 μL of sample diluent were added to each well that will be used for the standard curve. 50 μL of sample diluent was added to each sample well.
The standard curve was prepared by reconstituting the human erythropoietin standard by adding the volume of water listed on the vial label. Standard was swirled gently and allowed to reconstitute for 10 minutes prior to use, then 100 μL is added to standard wells and mixed well. 100 μL from standard wells were then transferred to sample wells and mixed well. This was repeated 5 times to produce 2 columns of standard dilutions from 100 to 1.6 mIU/mL. 100 μL was discarded from the last microwells. The final 2 wells contained 100 μL of sample diluent and served as a blank. An external standard was also included to facilitate a mIU/mL conversion to ng/mL. The same serial dilution method was repeated starting with the external standard at 6.25 ng/mL. Once the standards were added, 50 μL of each sample was added in duplicate to the sample wells. Next, the biotin-conjugate was prepared by diluting 1:100 in assay buffer. 50 μL of biotin-conjugate was added to all wells and the plate was covered with a plate seal and shaken at room temperature for 1 hour. During the last few minutes of shaking, streptavidin-HRP was prepared by diluting 1:100 in assay buffer. The plate was washed on a plate washer and tapped on an absorbent pad to remove remaining wash buffer.
100 μL of the diluted streptavidin-HRP was added to each well and the plate was sealed and shaken for 15 minutes at room temperature. After 15 minutes, the plate seal was removed and the plate was washed on a plate washer and remaining wash buffer tapped out on an absorbent pad. 100 μL of TMB substrate was added to all wells and the plate was incubated for 10 minutes at room temperature out of direct light. Color development was checked every few minutes and the assay was stopped when the highest standard was dark blue. The reaction was stopped by pipetting 100 μL of stop solution into each well. Immediately after stop solution was added, the plate was gently tapped to ensure the solution was mixed. Absorbance was then read at 450 nm for each well. A standard curve was plotted for both the kit-provided standards (mIU/mL) and the external standard (ng/mL) and fit using Prism. Sample absorbances that fell within the standard curve were interpolated and adjusted for dilution (including a 2× assay dilution). Samples that were not within the standard curve were repeated at an adjusted dilution.

luciferase = test: Luciferase expression after local (intramuscular or subcutaneous) administration of mRNA; assay type: in vivo; details: mRNA 0.01 mpk, 6 hours; for IM Flux: intramuscular; for SC Flux: subcutaneous
Description: (§2) All animal studies were conducted under accreditation by the California State Department of Public Health and under supervision of IACUC and Veterinarian Supervision. For imaging studies, female Balb/c mice (6-8 weeks old) were obtained and acclimatized for a minimum of 3 days prior to experiments. The animals were maintained on a 12 hour light cycle in a temperature and humidity controlled room. A daily health check was performed as well as food and water check. For dosing, mice were injected with 2.5 ug fLuc mRNA-containing Nutshells intravenously in 100 μL total injection value. At 6 hours post-injection, mice were anesthetized with isoflurane, injected IP with 30 mg/mL D-luciferin at a dose of 10 μL per gram bodyweight intraperitoneally. Imaging was done 10 minutes post D-luciferin injection using an IVIS Spectrum Imaging System (Caliper Life Sciences). Immediately after in vivo imaging, mice were terminally bled by cardiac puncture and euthanized. The organs of interest were harvested, placed in black 24-well plates, and imaged. Living Image software (Perkin Elmer) was used to quantify the total photon flux in regions of interest.
Aminolipidated peptoids were also effective for local administration of mRNA through subcutaneous (S.C.) or intramuscular (I.M.) routes of administration. For these examples, mRNA was administered at a dose of 0.1 mpk for intratomoral, or 0.01 mpk for subcutaneous and intramuscular administration, and the resulting bioluminescence quantified after 6 hours according to a similar procedure as described in Example 4.

mRNA = mRNA encapsulation (modified Quant-iT RiboGreen assay); assay type: physicochemical; details: RiboGreen, without vs with Triton X-100
Description: The mRNA concentration and the percentage of encapsulated mRNA were determined using fluorescent-based Quant-iT RiboGreen RNA Reagent Kit (Life Technologies, Waltham, MA) as described previously. To determine the mRNA concentration, PNPs was incubated with […] for 10 min to release entrapped mRNA, followed by addition of RiboGreen RNA reagent. The fluorescence intensity of mRNA-RiboGreen reagent complex (excitation at 485 nm and emission at 530 nm) was detected using a microplate reader. The ratio of fluorescence without and with Triton X-100 were used to calculate the percentage of encapsulated mRNA.
as §1

firefly luciferase = test: In vivo firefly luciferase expression after intravenous injection of fLuc mRNA delivery vehicles (IVIS imaging); set-up: species or system female Balb/c mice; details: mice, 2.5 ug fLuc mRNA intravenously, 6 hours post-injection
Description: as §2
Luciferase expression in these formulations was also determined as described in Example 4.

CCCCCCCC(=O)OCCCN(C=O)CC(=O)N(CCCOC(=O)CCCCCCC)CC(=O)N(CCc1ccccc1)CC(=O)N(CC(=O)N(CCCn1ccnc1)CC(=O)N(CCCOC(=O)CCCCCCC)CC(=O)N(CCc1ccccc1)CC(=O)N(CCCOC(=O)CCCCCCC)CC(=O)N(CC(N)=O)CC(CC)CCCC)CC(CC)CCCC (stereo not drawn) [Compound 123]
PDI [1]: 0.201 | Particle Size [1]: 118.1 nm | hEPO (hEPO): 172 ng/mL | IM Flux (luciferase): 6.45E+06 p/s | SC Flux (luciferase): 1.01E+07 p/s | mean percent encapsulation of RNA (mRNA): 56.3%

CCCCCCCC(=O)OCCCN(CC(=O)N(CCc1ccccc1)CC(=O)N(CC(=O)N(CCCN1CCOCC1)CC(=O)N(CC(=O)N(CCc1ccccc1)CC(=O)N(CCCOC(=O)CCCCCCC)CC(=O)N(CC(N)=O)CC(CC)CCCC)CC(CC)CCCC)CC(CC)CCCC)C(=O)CN(C=O)CC(CC)CCCC (stereo not drawn) [Compound 124]
PDI [1]: 0.118 | Particle Size [1]: 85.2 nm | Total Flux (firefly luciferase): 6.20E+08 p/s | IM Flux (luciferase): 4.35E+07 p/s | SC Flux (luciferase): 4.34E+07 p/s | mean percent encapsulation of RNA (mRNA): 93.5%

CCCCCCCCCCCC(=O)OCCCN(C=O)CC(=O)N(CCCOC(=O)CCCCCCCCCCC)CC(=O)N(CC(=O)N(CCCN1CCOCC1)CC(=O)N(CC(=O)N(CCCOC(=O)CCCCCCCCCCC)CC(=O)N(CCCOC(=O)CCCCCCCCCCC)CC(N)=O)CC(CC)CCCC)CC(CC)CCCC (stereo not drawn) [Compound 91] (For-[N(3-lauroyloxypropyl)Gly][N(3-lauroyloxypropyl)Gly][N(2-ethylhexyl)Gly][Gly(N-3-morpholinopropyl)][N(2-ethylhexyl)Gly][N(3-lauroyloxypropyl)Gly][N(3-lauroyloxypropyl)Gly]-NH2)
hEPO (hEPO): 17.4 ng/mL | IM Flux (luciferase): 2.44E+08 p/s | SC Flux (luciferase): 4.22E+07 p/s

CCCCCCCCCC(=O)OCCCN(CC(=O)N(CC(N)=O)CC(CC)CCCC)C(=O)CN(CCCCCCCC)C(=O)CN(CC(CC)CCCC)C(=O)CN(CCCOC(=O)CCCCCCCCC)C(=O)CN(CCCCCCCC)C(=O)CNCCCn1ccnc1 (stereo not drawn) [Compound 111] (H-[N(3-imidazol-1-ylpropyl)Gly][N(octyl)Gly][Gly(N-(3-decanoyloxypropyl))][N(2-ethylhexyl)Gly][N(octyl)Gly][Gly(N-(3-decanoyloxypropyl))][N(2-ethylhexyl)Gly]-NH2)
PDI [1]: 0.148 | Particle Size [1]: 105.5 nm | Total Flux (firefly luciferase): 3.16E+08 p/s | IM Flux (luciferase): 4.89E+07 p/s | SC Flux (luciferase): 6.25E+07 p/s | mean percent encapsulation of RNA (mRNA): 72.3%

CCCCCCCC(=O)OCCCN(C=O)CC(=O)N(CCCOC(=O)CCCCCCC)CC(=O)N(CCSSCC(CC)CCCC)CC(=O)N(CCCN1CCOCC1)CC(=O)N(CCSSCC(CC)CCCC)CC(=O)N(CCCOC(=O)CCCCCCC)CC(=O)N(CCCOC(=O)CCCCCCC)CC(N)=O (stereo not drawn) [Compound 133] (For-[Gly(N-(CH2)3O-octanoyl)][Gly(N-(CH2)3O-octanoyl)][X1][Gly(N-3-morpholinopropyl)][X1][Gly(N-(CH2)3O-octanoyl)][Gly(N-(CH2)3O-octanoyl)]-NH2)
PDI [1]: 0.083 | Particle Size [1]: 76.9 nm | Total Flux (firefly luciferase): 2.80E+08 p/s | IM Flux (luciferase): 1.08E+07 p/s | SC Flux (luciferase): 3.73E+07 p/s | mean percent encapsulation of RNA (mRNA): 86.7%

CCCCCCCCN(C=O)CC(=O)N(CCCOC(=O)CCCCCCC)CC(=O)N(CCSSCC(CC)CCCC)CC(=O)N(CCCN1CCOCC1)CC(=O)N(CCSSCC(CC)CCCC)CC(=O)N(CCCOC(=O)CCCCCCC)CC(=O)N(CCCCCCCC)CC(N)=O (stereo not drawn) [Compound 132] (For-[N(octyl)Gly][Gly(N-(CH2)3O-octanoyl)][X1][Gly(N-3-morpholinopropyl)][X1][Gly(N-(CH2)3O-octanoyl)][N(octyl)Gly]-NH2)
PDI [1]: 0.090 | Particle Size [1]: 86.0 nm | Total Flux (firefly luciferase): 1.31E+10 p/s | IM Flux (luciferase): 4.62E+08 p/s | SC Flux (luciferase): 6.94E+08 p/s | mean percent encapsulation of RNA (mRNA): 74.2%

CCCCCCCCSSCCN(CC(=O)N(CCCN1CCOCC1)CC(=O)N(CCSSCCCCCCCC)CC(=O)N(CCCOC(=O)CCCCCCC)CC(=O)N(CCCOC(=O)CCCCCCC)CC(N)=O)C(=O)CN(CCCOC(=O)CCCCCCC)C(=O)CN(C=O)CCCOC(=O)CCCCCCC [Compound 134] (For-[Gly(N-(CH2)3O-octanoyl)][Gly(N-(CH2)3O-octanoyl)][X3][Gly(N-3-morpholinopropyl)][X3][Gly(N-(CH2)3O-octanoyl)][Gly(N-(CH2)3O-octanoyl)]-NH2)
PDI [1]: 0.062 | Particle Size [1]: 73.8 nm | Total Flux (firefly luciferase): 5.63E+08 p/s | IM Flux (luciferase): 6.40E+07 p/s | SC Flux (luciferase): 1.60E+08 p/s | mean percent encapsulation of RNA (mRNA): 83.7%

CCCCCCCCCCN(CC(=O)N(CCSSCC(CC)CCCC)CC(=O)N(CCCOC(=O)CCCCCCC)CC(N)=O)C(=O)CN(CCSSCC(CC)CCCC)C(=O)CN(CCCOC(=O)CCCCCCC)C(=O)CN(CC(CC)CCCC)C(=O)CNC(CO)CO (stereo not drawn) [Compound 130] (H-[N(CH(CH2OH)2)Gly][N(2-ethylhexyl)Gly][Gly(N-(CH2)3O-octanoyl)][X1][NDecylGly][X1][Gly(N-(CH2)3O-octanoyl)]-NH2)
PDI [1]: 0.086 | Particle Size [1]: 75.5 nm | Total Flux (firefly luciferase): 4.45E+09 p/s | IM Flux (luciferase): 2.72E+08 p/s | SC Flux (luciferase): 1.92E+08 p/s | mean percent encapsulation of RNA (mRNA): 86.0%

Reference: patent US20260373248A1, “DEGRADABLE PEPTOIDS” (Medici Therapeutics, Inc., priority 2023, published 2026)
